{
  "source": "paper PMC5538626",
  "about": "“Structural and functional analysis of the GABARAP interaction motif (GIM)” (EMBO Reports, 2017)",
  "key": {"GABARAP-L2": {"biological_target": "T1, GABARAP-L2 (Homo sapiens, UniProt P60520)", "T1 construct": "modified Ub-leader (ubiquitin fusion leader) (N); made in house; host or cells: E. coli NEB T7 Express", "T1 sequence (P60520 whole entry, the tested form may be a part)": "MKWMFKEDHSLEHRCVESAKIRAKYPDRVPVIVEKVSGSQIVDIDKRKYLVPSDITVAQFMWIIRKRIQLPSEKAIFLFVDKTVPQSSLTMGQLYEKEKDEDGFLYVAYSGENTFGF", "assay": "ITC titration of PLEKHM1-LIR peptide into GABARAP-L2", "format": "binding", "conditions": "25°C, pH 7.0", "experimental": "(§1) The genes for the truncated LC3A^2–121, LC3C^8–125, GABARAP^2–117 and GABARAP‐L1^2–117 proteins were cloned into pET30ΔSE vector between the BamHI and XhoI sites using previously established protocols 38. The chimeric constructs of the PLEKHM1‐LIR attached to the LC3A, GABARAP and GABARAP‐L1 proteins were prepared by inserting the oligonucleotide sequence corresponding to the PLEKHM1‐LIR peptide (P^629[…]^638) and glycine–serine linker into the BamHI site of the pET30ΔSE vector, placing the PLEKHM1‐LIR at the N‐terminal of the mature chimeric protein (similar to 31, 38). For the expression of human LC3 and GABARAP proteins for ITC and NMR experiments, plasmids with appropriate modified Ub‐leaders in pET vectors were used 39. Gene, encoding PLEKHM1‐LIR peptide, was ordered as synthetic oligonucleotides (Eurofins Genomics GmbH) and cloned into the pET39_Ub63_ vector 39 by NcoI–BamHI restriction sites. After TEV cleavage, the resulting peptide has the amino acid sequence GAMG‐P^629[…]^642, where the first four residues (GAMG) are the cloning artefact.\n(§2) The chimeric constructs were expressed as a His‐tag fusion protein in E. coli BL21(DE3) cells. The cells were induced with 0.3 mM IPTG at OD600 0.6 for 16 h at 26°C. The cell pellets were lysed using mechanical sonication in lysis buffer (20 mM Tris–HCl pH 9.0, 100 mM NaCl, 10 mM imidazole, supplemented with 0.1% Triton X‐100). The proteins were purified using Ni‐NTA beads (GE Healthcare) and the His‐tag was cleaved using thrombin (Invitrogen) at room temperature for 16 h. The last step was gel filtration chromatography using a Superdex S200/300 GL column (GE Healthcare). The proteins were concentrated using spin concentrators (Vivaspin). For ITC and NMR studies, the non‐labelled and stable isotopes labelled LC3 and GABARAP proteins were obtained based on the protocols described elsewhere 30, 39. Here, E. coli NEB T7 Express culture transformed with corresponding plasmids were grown till OD600 nm = 1.0 and protein expression was induced with 0.2 mM IPTG. The cultures were incubated at 25°C for 8–12 h before cell harvesting. Isolation and purification procedures were similar to those reported in Ref. 22, 40. Before experiments, all proteins and peptides were equilibrated with a buffer containing 50 mM Na2HPO4, 100 mM NaCl at pH 7.0, and supplied with 5 mM protease inhibitor cocktail.\n(§3) The protocol for preparation of non‐labelled and ^13C,^15N‐labelled PLEKHM1‐LIR peptide was slightly modified to achieve highest yield of the peptide. The 50 ml M9 culture was inoculated with NEB T7 cell transformed with pET39_Ub63‐PLEKHM1‐LIR plasmid and grown overnight at 37°. The collected cells were resuspended in 2 l of either LB or M9 media contained 1.5 g ^15N‐labelled NH4Cl and 3.0 g of ^13C‐labelled glucose. The cultures were grown at 37° till A(600 nm) = 0.9 and supplied with 1 mM of IPTG to induce Ub63‐PLEKHM1‐LIR overexpression (3 h at 37°). After that cells were harvested by centrifugation, re‐suspended in buffer contained 50 mM Tris–HCl pH = 7.9, 200 mM NaCl, 5% glycerol, 0.1 mg/ml DNase A and 4 mM protease inhibitor cocktail. After cell lysis by French press, debris was removed by centrifugation and clear supernatant was applied onto the column contained Ni‐NTA Sepharose equilibrated with the loading buffer (50 mM Tris–HCl pH = 7.9, 250 mM NaCl, 1% glycerol and 20 mM imidazole). Elution was performed with 400 mM imidazole in the same buffer. An aliquot of pure Ub63‐PLEKHM1‐LIR fractions was further purified by gel filtration on Superdex75 26 × 60 column for control ITC and analytical size exclusion chromatography experiments, remaining fusion protein was processed with the TEV‐protease and PLEKHM1‐LIR peptide was purified to 95% purity by reverse Ni‐NTA chromatography and followed gel filtration on Superdex75 26 × 60 column. Peak maximum of peptide was detected at […] (void volume 115 ml). Pure peptide was concentrated in Amicon concentrators with cut‐off of 3 kDa (> 95% retention). […]"}, "[1]": {"biological_target": "LC3-subfamily of proteins", "assay": "ITC, LC3-subfamily (range)", "format": "binding, human", "experimental": "All titration experiments were performed at 25°C using a VP‐ITC microcalorimeter (Malvern Instruments Ltd, UK). The ITC data were analysed with the ITC‐Origin 7.0 software with a “one‐site” binding model. The peptides at concentrations of 0.4 mM were titrated into 0.020 mM LC3 and GABARAP proteins in 26 steps. The protein and peptide concentrations were calculated from the UV absorption at 280 nm by NanoDrop spectrophotometer (Thermo Fisher Scientific, DE, USA)."}, "LC3B": {"biological_target": "T2, LC3B (Homo sapiens, UniProt Q9GZQ8)", "T2 construct": "modified Ub-leader (ubiquitin fusion leader) (N); made in house; host or cells: E. coli NEB T7 Express", "assay": "ITC titration of PLEKHM1-LIR peptides into LC3B", "format": "binding", "conditions": "ITC, 25°C, pH 7.0; for ΔH: VP-ITC, one-site model, 0.4 mM peptide into 0.020 mM protein, 50 mM Na2HPO4, 100 mM NaCl", "experimental": "as §1, §2, §3"}},
  "note": "Ends that are not written are not given here.",
  "data": [
    {"sequence": "GAMGPQQEDEWVNVQYPD [PLEKHM1‐LIR WT]", "values": [
      {"measurement": "ΔH", "setting": "GABARAP-L2; VP-ITC, one-site model, 0.4 mM peptide into 0.020 mM protein, 50 mM Na2HPO4, 100 mM NaCl", "value": "-6.1 ± 0.1", "unit": "kcal/mol"},
      {"measurement": "KA", "setting": "GABARAP-L2", "value": "1.07 ± 0.03 ×10^6 M^−1"},
      {"measurement": "N (number of binding sites)", "setting": "GABARAP-L2", "value": "1.05 ± 0.01"},
      {"measurement": "ΔG", "setting": "GABARAP-L2", "value": -8.23, "unit": "kcal/mol"},
      {"measurement": "ΔS", "setting": "GABARAP-L2", "value": "+7.00 cal mol^−1 K^−1"},
      {"measurement": "−T × ΔS", "setting": "GABARAP-L2", "value": -2.09, "unit": "kcal/mol"},
      {"measurement": "Kd", "setting": "[1]", "value": "3.5 to 6.3", "unit": "µM"},
      {"measurement": "ΔH", "setting": "LC3B", "value": "-5.8 ± 0.2", "unit": "kcal/mol"},
      {"measurement": "ΔH", "setting": "LC3B; listed as PLEKHM1-LIR", "value": "-5.8 ± 0.2", "unit": "kcal/mol"},
      {"measurement": "KA", "setting": "LC3B", "value": "0.16 ± 0.01 ×10^6 M^−1"},
      {"measurement": "N (number of binding sites)", "setting": "LC3B", "value": "1.06 ± 0.01"},
      {"measurement": "ΔG", "setting": "LC3B", "value": -7.09, "unit": "kcal/mol"},
      {"measurement": "ΔS", "setting": "LC3B", "value": "+4.27 cal mol^−1 K^−1"},
      {"measurement": "−T × ΔS", "setting": "LC3B", "value": -1.27, "unit": "kcal/mol"},
      {"measurement": "KA", "setting": "LC3B; listed as PLEKHM1-LIR", "value": "0.16±0.01 ×10^6 M^−1"},
      {"measurement": "ΔG", "setting": "LC3B; listed as PLEKHM1-LIR", "value": -7.09, "unit": "kcal/mol"},
      {"measurement": "−T × ΔS", "setting": "LC3B; listed as PLEKHM1-LIR", "value": -1.27, "unit": "kcal/mol"}
    ]}
  ]
}
